# Measured values reported in US20210371351A1, “MIXTURES COMPRISING AT LEAST TWO DIFFERENT NITRIFICATION INHIBITORS SELECTED FROM 2-(3,4-DIMETHYL-1H-PYRAZOL-1-YL)SUCCINIC ACID (DMPSA), 3,4-DIMETHYL PYRAZOLIUM GLYCOLATE (DMPG) AND OTHER COMPOUNDS” (BASF SE, priority 2017, published 2021).
# Test system: nitrification
# Assay: Example 4: soil column trial (soil Limburgerhof), DMPSA and DMPP, other weight ratios; incubation 10 d at 15° C.; % inhibition of NO3-N formation (Böhland), Colby
# Settings: 10 days of incubation at 15° C.; 0.005% DMPP, 0.45% DMPSA
# Excerpt: The effect on NH4+ retention and NH4+ to NO3− ratios in the soil after fertilization of ammonium sulfate with the addition of DMPP, DMPSA or a combination of DMPP and DMPSA was investigated in column trials simulating climatic conditions of spring time in central Europe. Soil Limburgerhof (pH(CaCl2) 6.8, texture: 73% sand; 24% silt, 3% clay) was filled dry into a glass column with an inner width of 4 cm. At the bottom 0.4 g cotton wool was placed above which a frit (Co. Robu, pore size 1) was placed above which 100 g of 2 mm sieved soil Limburgerhof was layered. The soil height in the column was about 7 cm. Before fertilization the soil was brought to about 60% of its water holding capacity (WHC) be adding 14.4 mL of deionized water. Per column 10 mg NH4—N as ammonium sulfate was fertilized or not (control) together or not with 0.005% or 0.015% DMPP (DMPP obtained from BASF SE), 0.45% DMPSA (DMPSA used as free acid obtained from BASF SE) and […] or 0.015% DMPP plus 0.45% DMPSA (% of nitrification inhibitor w/w of NH4-N). Every treatment was replicated three times. After fertilization, 50 mL demineralized water was carefully and slowly placed on top of each column which equals about 31 mm precipitation. After 24 h the eluate was collected and by sucking off the soil to bring it back to about 60% of its WHC. All handlings including soil preparation, fertilization and the temperature of the water for both wetting the soil and the artificial precipitation up to the collection of the eluate 24 h after fertilization was performed at 5° C.
# Thereafter, the columns were incubated for 10 d or 20 d at constantly 15° C. in an incubator. After 7 d and 14 d water was added by weight where needed to bring the soils uniformly to 60% WHC. After 10 d or 20 d the soil was removed from the columns and extracted with 1% (w/w) K2SO4 solution by shaking for 2 h at room temperature. The filtrated extract was then analyzed for NH4+ and NO3− colorimetrical by an autoanalyzer.
# To calculate the inhibition of nitrate formation by the nitrification inhibitors during the incubation, the above-mentioned Böhland equation was used. To examine synergistic effects of the combination of DMPP+DMPSA the formula by Colby (Colby, S.R., “Calculating synergistic and antagonistic responses of herbicide Combinations”, Weeds, 15, pp. 20-22, 1967) was used. To determine background levels of NH4+ to NO3−, every treatment was also extracted immediately after fertilization and after leaching prior to the further incubation at 15° C. for 10 d or 20 d.
substance,measurement,value
"2-(3,4-dimethyl-1H-pyrazol-1-yl)succinic acid and/or 2-(4,5-dimethyl-1H-pyrazol-1-yl)succinic acid [DMPSA]",During incubation: % inhibition of NO3—N formation by NI acc. to Böhland equation (1973) (MV),22.9%
same,Net NI effect % NH4 from fertilized NH4 (MV),9.36%
same,Ratio NH4—N/NO3—N (MV),0.20
same,Soil mg/100 g NH4—N (MV),0.96 mg/100 g
same,Soil mg/100 g NO3—N (MV),5.15 mg/100 g
